These are literature values, as cited in US20080014152A1, “INTRANASAL DELIVERY OF C[…] THE […] AND INTO THE BRAIN” (priority 2006, published 2008).

For data set [1] the following is noted: McIntyre 2005; infusions into the amygdala.
Another data set relates to astrocytes. Conditions: Abdulla 2005; astrocytes treated with LPS.
The test system of the next data set is NGF protein. Conditions: Zhu 1998; intraperitoneal.
Another data set addresses T1, β2 adrenergic receptors (Rattus norvegicus, UniProt P10608).
T1 construct: host or cells: rat cerebral cortex (in vivo)
Conditions: Colangelo 1998; stimulation of β2 adrenergic receptors.

For data set [2] the following is noted: Rami 2003; after transient global ischemia.
The next data set concerns hippocampal cells. The conditions noted are these: Zhu 2001.
For data set [3] the following is noted: Culmsee 1999.
Another data set has as its system hippocampal cultures. The conditions noted are these: Semkova 1996; in vitro exposure of hippocampal cultures.
For the next data set, the system named is U937 cell. The conditions noted are these: Izeboud 1999; U937 cells stimulated with LPS.
The conditions of data set [4]: Sleeper 2002; chronic systemic administration.
For data set [5] the following is noted: Culmsee 2004.
The next data set has as its system NGF mRNA. Conditions: Follesa 1993; 10 mg/kg intraperitoneal, within 5 hours of administration.

T1 sequence (P10608 whole entry): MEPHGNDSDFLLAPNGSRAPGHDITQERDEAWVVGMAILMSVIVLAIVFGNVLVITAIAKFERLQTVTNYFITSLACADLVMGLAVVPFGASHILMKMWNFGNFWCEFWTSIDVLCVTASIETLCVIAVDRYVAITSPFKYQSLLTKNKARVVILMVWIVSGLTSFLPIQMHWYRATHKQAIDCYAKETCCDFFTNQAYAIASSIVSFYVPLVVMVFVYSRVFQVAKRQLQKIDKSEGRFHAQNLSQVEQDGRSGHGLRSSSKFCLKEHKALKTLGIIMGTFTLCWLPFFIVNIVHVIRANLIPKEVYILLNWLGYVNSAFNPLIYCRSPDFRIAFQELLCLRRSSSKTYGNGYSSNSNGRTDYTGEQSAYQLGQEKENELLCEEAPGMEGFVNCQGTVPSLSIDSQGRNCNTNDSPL

Consider `CC(C)(C)NCC(O)c1cc(Cl)c(N)c(Cl)c1` (stereo not drawn) [clenbuterol], for which the memory entry in data set [1] was “enhance memory”. Besides, the “increase in bFGF mRNA in the cerebral cortex, hippocampus and cerebellum” value in the data set on bFGF mRNA (Follesa 1993, 10 mg/kg intraperitoneal, within 5 hours of administration) is 2-3 fold. Further, the “induction of bFGF production in neurons” value with bFGF mRNA (in vivo) is recorded as 2-3 ×. Moreover, the “protection from inflammation in astrocytes” value with astrocytes is on record as “provides protection from inflammation”. For the same compound, the TGF-β immunoreactivity entry in the data set on TGF-β (Zhu 2001, 0.5 mg/kg, as early as 3 hours after administration, elevated up to 2 days) is “increase TGF-β immunoreactivity”. Further, the “induction of TGF-β production in neurons” value in the data set on TGF-β (in vivo) is given as 2-3 ×. Moreover, the “elevation of NGF protein levels in the rat hippocampus” value in the data set on NGF protein is listed as 33%. The “NGF biosynthesis in the rat cerebral cortex” value on β2 adrenergic receptors is “increases NGF biosynthesis”. Moreover, the “apoptosis in the rat hippocampus” value in [2] is “attenuates apoptosis”. In the data set on hippocampal cells, the “neuroprotection of hippocampal cells after ischemia” value was “provided neuroprotection”. The cortical infarct volume entry in data set [3] (0.01-0.5 mg/kg, rats, measured 7 days after permanent occlusion of the middle cerebral artery) is given as “reduced cortical infarct volume”. In data set [3] (dosages greater than 1 mg/kg), the blood pressure entry is given as “decrease in blood pressure”, the cerebroprotective effect entry was “no cerebroprotective effect” and the plasma glucose level entry is given as “increase in plasma glucose level”. Moreover, the “NGF content in the culture medium” value with hippocampal cultures is “enhanced significantly”. For the same compound, in the data set on U937 cell, the IL-6 production result is “decreasing”, the IL-10 production entry is given as “increase IL-10 production” and the TNF-α production result is on record as “decreasing”. In data set [4], the “side effects, cardiac function” value is recorded as “negative alteration of cardiac function”. In data set [5], the “neuroprotective capacity in experimental models of stroke” value is “neuroprotective capacity”. For the same compound, the “increase in NGF mRNA in the cerebral cortex” value in the data set on NGF mRNA is reported as 2-3 fold.
